We go through 28 molecules from patent publication US9926281B2 (priority 2014, dated 2018).

One experiment concerns the target human TACE (Homo sapiens (Human), UniProt P78536). As to conditions: read-out: TACE potency IC50.
The target in the next experiment is human MMP13 (Homo sapiens (Human), UniProt P45452). Particulars: read-out: hMMP-13 potency IC50.
In a further experiment the target is human ADAMTS-5 (Homo sapiens (Human), UniProt Q9UNA0). Particulars: read-out: hADAMTS-5 potency IC50.
Sequence of human ADAMTS-5 (Q9UNA0 262-930): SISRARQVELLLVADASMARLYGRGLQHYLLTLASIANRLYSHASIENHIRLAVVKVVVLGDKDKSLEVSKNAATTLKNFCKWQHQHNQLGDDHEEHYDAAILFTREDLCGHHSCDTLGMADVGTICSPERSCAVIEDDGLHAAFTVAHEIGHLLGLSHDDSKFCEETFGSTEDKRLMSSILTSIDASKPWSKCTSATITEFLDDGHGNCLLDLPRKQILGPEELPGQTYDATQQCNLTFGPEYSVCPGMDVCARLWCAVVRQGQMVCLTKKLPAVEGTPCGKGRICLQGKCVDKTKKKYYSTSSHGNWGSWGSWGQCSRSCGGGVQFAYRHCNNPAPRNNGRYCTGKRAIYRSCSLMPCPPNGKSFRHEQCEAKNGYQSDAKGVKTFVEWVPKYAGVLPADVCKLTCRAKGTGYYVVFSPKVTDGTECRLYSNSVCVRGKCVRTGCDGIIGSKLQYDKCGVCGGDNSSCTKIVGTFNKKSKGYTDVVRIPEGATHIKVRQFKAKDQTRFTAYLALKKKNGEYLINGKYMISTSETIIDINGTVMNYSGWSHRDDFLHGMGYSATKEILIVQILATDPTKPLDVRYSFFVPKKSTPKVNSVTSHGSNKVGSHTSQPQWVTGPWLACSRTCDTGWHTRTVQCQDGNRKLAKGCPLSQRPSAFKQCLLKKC

Sequence of human TACE (P78536 whole entry, looked up, change not shown): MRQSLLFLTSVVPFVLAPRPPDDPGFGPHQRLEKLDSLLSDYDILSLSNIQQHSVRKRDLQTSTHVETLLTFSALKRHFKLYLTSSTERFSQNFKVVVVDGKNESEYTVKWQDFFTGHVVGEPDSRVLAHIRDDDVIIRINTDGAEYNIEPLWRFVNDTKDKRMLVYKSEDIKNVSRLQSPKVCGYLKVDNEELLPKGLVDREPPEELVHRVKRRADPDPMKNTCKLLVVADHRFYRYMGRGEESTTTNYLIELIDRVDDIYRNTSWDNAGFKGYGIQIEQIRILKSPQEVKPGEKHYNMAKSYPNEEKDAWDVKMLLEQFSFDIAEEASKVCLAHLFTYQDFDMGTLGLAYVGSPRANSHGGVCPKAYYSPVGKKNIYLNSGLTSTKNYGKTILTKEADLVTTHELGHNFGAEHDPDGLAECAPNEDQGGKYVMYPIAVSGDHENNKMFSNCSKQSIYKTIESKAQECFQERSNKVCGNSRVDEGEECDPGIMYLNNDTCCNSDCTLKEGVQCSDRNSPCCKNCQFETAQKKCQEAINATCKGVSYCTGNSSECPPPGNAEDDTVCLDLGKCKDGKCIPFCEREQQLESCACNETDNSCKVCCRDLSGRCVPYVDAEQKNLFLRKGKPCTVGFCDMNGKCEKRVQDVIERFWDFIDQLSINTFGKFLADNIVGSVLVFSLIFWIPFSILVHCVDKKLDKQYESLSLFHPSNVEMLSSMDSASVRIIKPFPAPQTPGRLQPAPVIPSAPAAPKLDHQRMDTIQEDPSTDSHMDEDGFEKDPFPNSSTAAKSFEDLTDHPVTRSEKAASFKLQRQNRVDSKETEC
Protocol for human ADAMTS-5: Finally, the fluorescence is read on the Envision (Perkin Elmer) after an incubation of 90 min at 37° C.
Protocol for human MMP13: Human MMP13 is preactivated by incubated the enzyme in the same buffer complemented with 1 mM freshly prepared p-Aminophenylmercuric acetate (AMPA) for 1 hour at 37° C.

The IC50 is the concentration that gives 50% inhibition. As for `CN(C)CC1(CCC(=O)N2CCN(c3cccc(Cl)c3)CC2)NC(=O)NC1=O` (stereo not shown) [compound 118, 5-[3-[4-(3-chlorophenyl)piperazin-1-yl]-3-oxo-propyl]-5-(dimethylaminomethyl)imidazolidine-2,4-dione], the figures for the IC50 on human TACE and at human MMP13 were greater than 4000 nM and greater than 20000 nM, respectively.

For `CC1CN(C(=O)CCC2(c3cccnc3)NC(=O)NC2=O)CCN1c1cc(Cl)cc(Cl)c1` (stereo not shown) [compound 127, 5-[3-[4-(3,5-dichlorophenyl)-3-methyl-piperazin-1-yl]-3-oxo-propyl]-5-(3-pyridyl)imidazolidine-2,4-dione], the IC50 is greater than 4000 nM at human TACE and greater than 20000 nM at human MMP13.

On to `Cc1ccc(Cl)cc1N1CCN(C(=O)CCC2(CN(C)C)NC(=O)NC2=O)CC1` (stereo not shown) [compound 120, 5-[3-[4-(5-chloro-2-methyl-phenyl)piperazin-1-yl]-3-oxo-propyl]-5-(dimethylaminomethyl)imidazolidine-2,4-dione], for which the figures for the concentration for half-maximal inhibition (IC50) at human TACE and at human MMP13 were greater than 4000 nM and greater than 20000 nM, respectively.

As to `CC1(CCC(=O)N2CCN(c3cc(F)cc(F)c3)CC2)NC(=O)NC1=O` (stereo not shown) [compound 140, 5-[3-[4-(3,5-difluorophenyl)piperazin-1-yl]-3-oxo-propyl]-5-methyl-imidazolidine-2,4-dione], the results for the half-maximal inhibitory concentration (IC50) on human TACE and on human MMP13 were greater than 20000 nM and greater than 4000 nM, respectively.

`CN(C)Cc1ccc(C2(CCC(=O)N3CCN(c4cccc(Cl)c4)CC3)NC(=O)NC2=O)cc1` (stereo not shown) [compound 83, 5-[3-[4-(3-chlorophenyl)piperazin-1-yl]-3-oxo-propyl]-5-[4-(dimethylaminomethyl)phenyl]imidazolidine-2,4-dione]: the 50% inhibitory concentration (IC50) on human TACE was 2490 nM; on human MMP13, greater than 4000 nM.

Regarding `O=C1NC(=O)C(CCC(=O)N2CCN(c3cc(Cl)cc(Cl)c3)CC2)(c2ccccn2)N1` (stereo not shown) [compound 407, 5-(3-(4-(3,5-dichlorophenyl)piperazin-1-yl)-3-oxopropyl)-5-(pyridin-2-yl)imidazolidine-2,4-dione], the figures for the IC50 on human TACE and at human MMP13 were 479 nM and greater than 20000 nM, respectively.

For the molecule `CC(CC1(C)NC(=O)NC1=O)C(=O)N1C[C@H](C)N(c2cc(Cl)cc(Cl)c2)[C@@H](C)C1` (stereo partly drawn) [compound 271, 5-[3-[(3S,5S)-4-(3,5-dichlorophenyl)-3,5-dimethyl-piperazin-1-yl]-2-methyl-3-oxo-propyl]-5-methyl-imidazolidine-2,4-dione], the values for the IC50 on human ADAMTS-5 and on human TACE were 1300 nM and greater than 20000 nM, respectively.

With `C[C@H]1CN(C(=O)CCC2(C3CC3)NC(=O)NC2=O)CCN1c1cc(Cl)ncn1` (stereo partly drawn) [compound 256, 5-[3-[(3S)-4-(6-chloropyrimidin-4-yl)-3-methyl-piperazin-1-yl]-3-oxo-propyl]-5-cyclopropyl-imidazolidine-2,4-dione], the half-inhibitory concentration (IC50) on human ADAMTS-5 is 1410 nM; at human TACE, greater than 20000 nM.

With `CNc1cc(N2CCN(C(=O)CC[C@@]3(C)NC(=O)NC3=O)C[C@@H]2C)ccc1Cl` [compound 392, (5R)-5-[3-[(3S)-4-[4-chloro-3-(methylamino)phenyl]-3-methyl-piperazin-1-yl]-3-oxo-propyl]-5-methyl-imidazolidine-2,4-dione], the IC50 on human ADAMTS-5 was 567 nM; at human TACE, greater than 20000 nM.

With `Cc1ccc(N2CCN(C(=O)CCC3(C4CC4)NC(=O)NC3=O)C[C@@H]2C)cc1Cl` (stereo partly drawn) [compound 306, 5-[3-[(3S)-4-(3-chloro-4-methyl-phenyl)-3-methyl-piperazin-1-yl]-3-oxo-propyl]-5-cyclopropyl-imidazolidine-2,4-dione], the values for the IC50 on human ADAMTS-5 and on human TACE were 67 nM and greater than 4000 nM, respectively.

Consider `C[C@H]1CN(C(=O)CCC2(C3CC3)NC(=O)NC2=O)CCN1c1cc(Cl)nc(Cl)c1` (stereo partly drawn) [compound 258, 5-cyclopropyl-5-[3-[(3S)-4-(2,6-dichloro-4-pyridyl)-3-methyl-piperazin-1-yl]-3-oxo-propyl]imidazolidine-2,4-dione], for which the IC50 was 1530 nM on human ADAMTS-5 and greater than 20000 nM at human TACE.

As for `COC[C@]1(C[C@H](C)C(=O)N2CCN(c3cccc(-c4cn[nH]c4)c3)[C@@H](C)C2)NC(=O)NC1=O` [compound 380, 5-(methoxymethyl)-5-[2-methyl-3-[(3S)-3-methyl-4-[3-(1H-pyrazol-4-yl)phenyl]piperazin-1-yl]-3-oxo-propyl]imidazolidine-2,4-dione], the IC50 is 47 nM on human ADAMTS-5 and greater than 4000 nM at human TACE.

For `COCC1(CC(C)C(=O)N2CCN(c3cc(Cl)cc(Cl)c3C)[C@@H](C)C2)NC(=O)NC1=O` (stereo partly drawn) [compound 430, 5-(3-((S)-4-(3,5-dichloro-2-methylphenyl)-3-methylpiperazin-1-yl)-2-methyl-3-oxopropyl)-5-(methoxymethyl)imidazolidine-2,4-dione], on human MMP13, the IC50 is greater than 20000 nM.

Regarding `C[C@H]1CN(C(=O)CCC2(c3ncccn3)NC(=O)NC2=O)CCN1c1cc(F)cc(F)c1` (stereo partly drawn) [compound 382, 5-[3-[(3S)-4-(3,5-difluorophenyl)-3-methyl-piperazin-1-yl]-3-oxo-propyl]-5-pyrimidin-2-yl-imidazolidine-2,4-dione], the half-inhibitory concentration (IC50) at human ADAMTS-5 is 39 nM; on human TACE it was greater than 20000 nM.

`C[C@H]1CN(C(=O)CCC2(C3CC3)NC(=O)NC2=O)CCN1c1ccc(F)cc1` (stereo partly drawn) [compound 300, 5-cyclopropyl-5-[3-[(3S)-4-(4-fluorophenyl)-3-methyl-piperazin-1-yl]-3-oxo-propyl]imidazolidine-2,4-dione]: the values for the IC50 on human ADAMTS-5 and on human TACE were 140 nM and greater than 20000 nM, respectively.

For `Cc1cccc(C2(CCC(=O)N3CCN(c4cc(Cl)cc(Cl)c4)[C@@H](C)C3)NC(=O)NC2=O)n1` (stereo partly drawn) [compound 310, 5-[3-[(3S)-4-(3,5-dichlorophenyl)-3-methyl-piperazin-1-yl]-3-oxo-propyl]-5-(6-methyl-2-pyridyl)imidazolidine-2,4-dione], the IC50 came out at 50 nM at human ADAMTS-5 and 1320 nM at human TACE.

Take `COCC1(CC(C)C(=O)N2CCN(c3cncc(Cl)c3)[C@@H](C)C2)NC(=O)NC1=O` (stereo partly drawn) [compound 363, 5-[3-[(3S)-4-(5-chloro-3-pyridyl)-3-methyl-piperazin-1-yl]-2-methyl-3-oxo-propyl]-5-(methoxymethyl)imidazolidine-2,4-dione]: the figures for the 50% inhibitory concentration (IC50) at human ADAMTS-5 and on human TACE were 76 nM and greater than 12000 nM, respectively.

As for `COCC1(CC(C)C(=O)N2CCN(c3cc(F)c(Cl)c(F)c3)CC2)NC(=O)NC1=O` (stereo not shown) [compound 448], the IC50 was determined as 19 nM at human ADAMTS-5 and 2990 nM on human TACE.

Regarding `C[C@H]1CN(C(=O)CCC2(C3CC3)NC(=O)NC2=O)CCN1c1cc(F)cc(-c2cn[nH]c2)c1` (stereo partly drawn) [compound 338, 5-cyclopropyl-5-[3-[(3S)-4-[3-fluoro-5-(1H-pyrazol-4-yl)phenyl]-3-methyl-piperazin-1-yl]-3-oxo-propyl]imidazolidine-2,4-dione], the concentration for half-maximal inhibition (IC50) on human ADAMTS-5 was 60 nM; on human TACE, greater than 4000 nM.

As to `C[C@H]1CN(C(=O)CCC2(C3CC3)NC(=O)NC2=O)CCN1c1ccc2cnn(C)c2c1` (stereo partly drawn) [compound 341, 5-cyclopropyl-5-[3-[(3S)-3-methyl-4-(1-methylindazol-6-yl)piperazin-1-yl]-3-oxo-propyl]imidazolidine-2,4-dione], the results for the IC50 on human ADAMTS-5 and at human TACE were 264 nM and 885 nM, respectively.

Turning to `C[C@H]1CN(C(=O)CCC2(C3CC3)NC(=O)NC2=O)CCN1c1cc(Cl)ccn1` (stereo partly drawn) [compound 325, 5-[3-[(3S)-4-(4-chloro-2-pyridyl)-3-methyl-piperazin-1-yl]-3-oxo-propyl]-5-cyclopropyl-imidazolidine-2,4-dione], the concentration for half-maximal inhibition (IC50) on human ADAMTS-5 was 796 nM; on human TACE, greater than 20000 nM.

Take `C[C@H]1CN(C(=O)CCC2(C3CC3)NC(=O)NC2=O)CCN1c1cccc(-c2cnn(C)c2)c1` (stereo partly drawn) [compound 283, 5-cyclopropyl-5-[3-[(3S)-3-methyl-4-[3-(1-methylpyrazol-4-yl)phenyl]piperazin-1-yl]-3-oxo-propyl]imidazolidine-2,4-dione]: the IC50 at human ADAMTS-5 is 1080 nM; on human TACE it was greater than 20000 nM.

On to `CC(CC1(c2ccccn2)NC(=O)NC1=O)C(=O)N1CCN(c2ccc(F)c(F)c2)[C@@H](C)C1` (stereo partly drawn) [compound 264, 5-[3-[(3S)-4-(3,4-difluorophenyl)-3-methyl-piperazin-1-yl]-2-methyl-3-oxo-propyl]-5-(2-pyridyl)imidazolidine-2,4-dione], for which the IC50 was 19 nM on human ADAMTS-5 and greater than 4000 nM on human TACE.

Take `COCC1(CC(C)C(=O)N2CCN(c3ccc(F)cc3)[C@@H](C)C2)NC(=O)NC1=O` (stereo partly drawn) [compound 366, 5-[3-[(3S)-4-(4-fluorophenyl)-3-methyl-piperazin-1-yl]-2-methyl-3-oxo-propyl]-5-(methoxymethyl)imidazolidine-2,4-dione]: the IC50 at human ADAMTS-5 was 36 nM; at human TACE, greater than 4000 nM.

Consider `CC(CC1(c2ccccn2)NC(=O)NC1=O)C(=O)N1CCN(c2cccc(F)c2)[C@@H](C)C1` (stereo partly drawn) [compound 263, 5-[3-[(3S)-4-(3-fluorophenyl)-3-methyl-piperazin-1-yl]-2-methyl-3-oxo-propyl]-5-(2-pyridyl)imidazolidine-2,4-dione], for which the 50% inhibitory concentration (IC50) on human ADAMTS-5 came out at 19 nM; at human TACE, 2620 nM.

Regarding `C[C@H]1CN(C(=O)CCC2(c3ccccn3)NC(=O)NC2=O)CCN1c1cc(Cl)cc(Cl)c1` (stereo partly drawn) [compound 459, 5-[3-[(3S)-4-(3,5-dichlorophenyl)-3-methyl-piperazin-1-yl]-3-oxo-propyl]-5-(2-pyridyl)imidazolidine-2,4-dione], the concentration for half-maximal inhibition (IC50) at human ADAMTS-5 was determined as 46 nM; at human TACE, 1740 nM.

Regarding `CC(CC1(CN2CCC(F)(F)C2)NC(=O)NC1=O)C(=O)N1CCN(c2ccc(F)c(Cl)c2)[C@@H](C)C1` (stereo partly drawn) [compound 253, 5-[3-[(3S)-4-(3-chloro-4-fluoro-phenyl)-3-methyl-piperazin-1-yl]-2-methyl-3-oxo-propyl]-5-[(3,3-difuoropyrrolidin-1-yl)methyl]imidazolidine-2,4-dione], the IC50 at human ADAMTS-5 was 35 nM; on human TACE, greater than 20000 nM.

Take `Cc1cccc(C2(CCC(=O)N3CCN(c4cccc(Cl)c4)[C@@H](C)C3)NC(=O)NC2=O)n1` (stereo partly drawn) [compound 311, 5-[3-[(3S)-4-(3-chlorophenyl)-3-methyl-piperazin-1-yl]-3-oxo-propyl]-5-(6-methyl-2-pyridyl)imidazolidine-2,4-dione]: the IC50 is 57 nM on human ADAMTS-5 and 3070 nM at human TACE.
